According to ChEMBL document CHEMBL1909046, “DrugMatrix in vitro pharmacology data”:

Assays:
[1] = DRUGMATRIX: ATPase, Na+/K+ enzyme inhibition (substrate: ATP); assay type: tissue-based, Sus scrofa, Heart; details: Not Active = under 50% inhibition at 10 µM
Melanocortin receptor 5 = Melanocortin receptor 5 (Homo sapiens, UniProt P33032); assay type: cell membranes, HEK293, Membrane; details: hek293; note: in other assays of this panel Not Active means under 50% inhibition at 10 µM
[2] = target: T1, Muscarinic acetylcholine receptor M5 (Homo sapiens, UniProt P08912); assay type: cell membranes, Membrane; details: cho-k1; note: in other assays of this panel Not Active means under 50% inhibition at 10 µM
T1 sequence (P08912 whole entry): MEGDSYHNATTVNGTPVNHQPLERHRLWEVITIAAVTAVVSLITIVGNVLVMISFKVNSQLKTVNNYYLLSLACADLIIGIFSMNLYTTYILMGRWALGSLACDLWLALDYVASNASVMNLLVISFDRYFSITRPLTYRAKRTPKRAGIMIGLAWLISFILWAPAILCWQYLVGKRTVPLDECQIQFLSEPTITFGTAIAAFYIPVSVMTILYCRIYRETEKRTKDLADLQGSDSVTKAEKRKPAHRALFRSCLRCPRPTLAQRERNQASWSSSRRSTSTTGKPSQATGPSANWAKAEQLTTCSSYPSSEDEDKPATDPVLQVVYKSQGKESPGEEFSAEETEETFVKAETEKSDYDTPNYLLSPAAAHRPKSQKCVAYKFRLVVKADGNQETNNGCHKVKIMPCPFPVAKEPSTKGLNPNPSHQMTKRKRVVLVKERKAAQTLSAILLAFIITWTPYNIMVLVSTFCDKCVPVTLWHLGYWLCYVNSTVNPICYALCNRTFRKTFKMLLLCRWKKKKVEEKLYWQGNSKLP

[3] = target: T2, Neuropeptide Y receptor type 1 (Homo sapiens, UniProt P25929); assay type: cell membranes, Membrane; details: sk-n-mc; note: in other assays of this panel Not Active means under 50% inhibition at 10 µM
T2 sequence (P25929 whole entry): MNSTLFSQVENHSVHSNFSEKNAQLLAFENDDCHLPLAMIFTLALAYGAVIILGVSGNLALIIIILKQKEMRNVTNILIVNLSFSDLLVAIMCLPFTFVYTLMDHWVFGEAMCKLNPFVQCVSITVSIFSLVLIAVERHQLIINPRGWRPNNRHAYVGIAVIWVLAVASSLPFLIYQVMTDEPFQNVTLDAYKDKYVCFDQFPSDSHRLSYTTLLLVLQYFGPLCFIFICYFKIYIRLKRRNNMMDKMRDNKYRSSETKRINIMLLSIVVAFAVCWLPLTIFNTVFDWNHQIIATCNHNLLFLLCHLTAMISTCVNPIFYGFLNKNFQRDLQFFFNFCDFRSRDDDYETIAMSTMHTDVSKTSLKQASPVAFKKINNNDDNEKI

[4] = target: Delta-type opioid receptor (Homo sapiens, UniProt P41143); assay type: cell membranes, HEK293, Membrane; details: hek293; note: in other assays of this panel Not Active means under 50% inhibition at 10 µM
Sequence of Delta-type opioid receptor (P41143 whole entry): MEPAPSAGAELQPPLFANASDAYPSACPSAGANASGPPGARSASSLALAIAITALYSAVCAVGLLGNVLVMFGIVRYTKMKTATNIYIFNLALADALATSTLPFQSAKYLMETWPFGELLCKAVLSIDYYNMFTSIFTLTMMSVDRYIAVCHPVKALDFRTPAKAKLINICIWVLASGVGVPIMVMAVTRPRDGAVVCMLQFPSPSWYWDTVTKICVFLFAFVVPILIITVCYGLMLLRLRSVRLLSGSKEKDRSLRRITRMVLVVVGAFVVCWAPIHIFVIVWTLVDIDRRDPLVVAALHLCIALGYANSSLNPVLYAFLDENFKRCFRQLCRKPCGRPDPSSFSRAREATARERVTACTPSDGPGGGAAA

[5] = target: Mitogen-activated protein kinase 3 (Homo sapiens, UniProt P27361); experiment: DRUGMATRIX: Protein Serine/Threonine Kinase, ERK1 enzyme inhibition (substrate: Myelin Basic Protein); parameters: species or system Escherichia coli; details: Not Active = under 50% inhibition at 10 µM
Sequence of Mitogen-activated protein kinase 3 (P27361 whole entry): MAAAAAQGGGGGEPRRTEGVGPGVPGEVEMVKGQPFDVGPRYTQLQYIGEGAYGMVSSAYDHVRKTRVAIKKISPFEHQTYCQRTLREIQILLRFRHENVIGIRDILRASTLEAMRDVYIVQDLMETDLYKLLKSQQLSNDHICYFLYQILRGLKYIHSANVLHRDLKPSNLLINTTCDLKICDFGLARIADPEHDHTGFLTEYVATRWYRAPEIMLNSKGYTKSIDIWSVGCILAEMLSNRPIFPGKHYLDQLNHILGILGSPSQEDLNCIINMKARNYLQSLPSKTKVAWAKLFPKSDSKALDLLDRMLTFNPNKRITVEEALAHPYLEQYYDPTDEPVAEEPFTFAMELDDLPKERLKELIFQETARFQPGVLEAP

[6] = target: T3, Receptor-type tyrosine-protein phosphatase C (Homo sapiens, UniProt P08575); parameters: species or system Escherichia coli
T3 sequence (P08575 whole entry): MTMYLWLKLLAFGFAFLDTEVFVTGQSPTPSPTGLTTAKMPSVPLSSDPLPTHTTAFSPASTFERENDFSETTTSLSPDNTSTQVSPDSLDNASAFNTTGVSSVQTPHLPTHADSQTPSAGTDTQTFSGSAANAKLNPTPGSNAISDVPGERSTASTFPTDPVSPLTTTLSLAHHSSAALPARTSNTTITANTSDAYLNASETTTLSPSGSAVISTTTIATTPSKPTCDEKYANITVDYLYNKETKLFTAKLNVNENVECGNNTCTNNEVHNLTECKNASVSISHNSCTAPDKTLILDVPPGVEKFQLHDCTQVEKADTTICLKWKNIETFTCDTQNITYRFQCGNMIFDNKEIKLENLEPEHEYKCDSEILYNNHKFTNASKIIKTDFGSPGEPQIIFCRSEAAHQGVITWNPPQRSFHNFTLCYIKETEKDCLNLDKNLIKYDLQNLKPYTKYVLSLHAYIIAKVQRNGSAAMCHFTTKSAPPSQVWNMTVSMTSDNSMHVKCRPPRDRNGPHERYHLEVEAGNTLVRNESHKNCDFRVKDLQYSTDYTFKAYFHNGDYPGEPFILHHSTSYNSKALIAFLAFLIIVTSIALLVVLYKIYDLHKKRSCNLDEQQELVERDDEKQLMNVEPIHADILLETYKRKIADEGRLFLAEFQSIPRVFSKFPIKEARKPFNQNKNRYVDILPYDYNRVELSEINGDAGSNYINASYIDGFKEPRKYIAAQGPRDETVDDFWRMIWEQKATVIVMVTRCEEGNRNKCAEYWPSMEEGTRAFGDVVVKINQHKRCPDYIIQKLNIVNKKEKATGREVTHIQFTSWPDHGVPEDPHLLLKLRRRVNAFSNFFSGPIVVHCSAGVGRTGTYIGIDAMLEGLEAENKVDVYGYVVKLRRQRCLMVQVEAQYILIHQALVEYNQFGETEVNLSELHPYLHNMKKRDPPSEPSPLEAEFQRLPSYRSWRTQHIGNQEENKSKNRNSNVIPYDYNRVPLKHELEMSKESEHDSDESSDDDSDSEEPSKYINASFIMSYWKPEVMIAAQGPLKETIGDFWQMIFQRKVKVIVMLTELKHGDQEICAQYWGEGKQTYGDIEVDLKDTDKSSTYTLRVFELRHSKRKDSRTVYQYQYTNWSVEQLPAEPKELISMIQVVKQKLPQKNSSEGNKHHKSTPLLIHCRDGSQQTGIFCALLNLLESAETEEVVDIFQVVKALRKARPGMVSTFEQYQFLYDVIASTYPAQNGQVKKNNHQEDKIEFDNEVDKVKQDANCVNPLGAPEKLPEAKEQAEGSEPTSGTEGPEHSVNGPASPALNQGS

Adenosine receptor A3 = target: T4, Adenosine receptor A3 (Homo sapiens, UniProt P0DMS8); assay type: cell membranes, CHO-K1, Membrane; details: cho-k1
T4 sequence (P0DMS8 whole entry): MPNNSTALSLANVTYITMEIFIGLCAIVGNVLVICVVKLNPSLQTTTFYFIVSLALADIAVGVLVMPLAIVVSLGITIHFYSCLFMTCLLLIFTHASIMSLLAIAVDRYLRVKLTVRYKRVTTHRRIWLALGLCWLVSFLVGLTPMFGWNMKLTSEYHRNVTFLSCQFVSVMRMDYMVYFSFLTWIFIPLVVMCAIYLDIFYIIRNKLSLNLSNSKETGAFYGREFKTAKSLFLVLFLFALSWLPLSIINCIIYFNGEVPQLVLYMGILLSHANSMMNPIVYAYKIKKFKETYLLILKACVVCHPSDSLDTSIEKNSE

Sequence of Melanocortin receptor 5 (P33032 whole entry): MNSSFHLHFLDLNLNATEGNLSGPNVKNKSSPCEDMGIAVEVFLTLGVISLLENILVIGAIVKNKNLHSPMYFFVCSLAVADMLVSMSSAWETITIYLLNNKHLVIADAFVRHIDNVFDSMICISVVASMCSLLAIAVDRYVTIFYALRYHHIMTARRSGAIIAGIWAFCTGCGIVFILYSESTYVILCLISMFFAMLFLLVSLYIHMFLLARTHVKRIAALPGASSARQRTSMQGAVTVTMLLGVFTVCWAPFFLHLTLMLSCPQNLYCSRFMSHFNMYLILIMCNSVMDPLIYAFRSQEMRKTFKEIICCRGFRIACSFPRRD

Row | Compound | IC50 [1] | Ki [1] | IC50 (Melanocortin receptor 5) | IC50 [2] | IC50 [3] | IC50 [4] | IC50 ([5]; read-out: IC50) | IC50 [6] | IC50 (Adenosine receptor A3) | IC50 [5]
1 | O=c1cc(-c2ccccc2)oc2ccc3ccccc3c12 [BETA-NAPHTHOFLAVONE] | Not Active | Not Active | Not Active | Not Active | Not Active | Not Active | 5.47 µM | Not Active | Not Active | 
2 | CC(C)C[C@H]1C(=O)N2CCC[C@H]2[C@]2(O)O[C@](NC(=O)[C@@H]3C=C4c5cccc6[nH]c(Br)c(c56)C[C@H]4N(C)C3)(C(C)C)C(=O)N12 [BROMOCRIPTINE] | Not Active | Not Active | Not Active | Not Active | Not Active | Not Active |  | Not Active | Not Active | Not Active
3 | CS(=O)(=O)OCCCCOS(C)(=O)=O [BUSULFAN] | Not Active | Not Active | Not Active | Not Active | Not Active | Not Active |  | Not Active | Not Active | Not Active
4 | O=C(/C=C/c1ccc(O)c(O)c1)OCCc1ccccc1 [CAFFEIC ACID PHENETHYL ESTER] | Not Active | Not Active | Not Active | Not Active | Not Active | Not Active |  | Not Active | Not Active | Not Active
5 | COc1cc(CNC(=O)CCCC/C=C/C(C)C)ccc1O [CAPSAICIN] | Not Active | Not Active | Not Active | Not Active | Not Active | Not Active |  | Not Active | Not Active | Not Active
6 | NC(=O)N1c2ccccc2C=Cc2ccccc21 [CARBAMAZEPINE] | Not Active | Not Active | Not Active | Not Active | Not Active | Not Active |  | Not Active | Not Active | Not Active
7 | CCOC(=O)n1ccn(C)c1=S [CARBIMAZOLE] | Not Active | Not Active | Not Active | Not Active | Not Active | Not Active |  | Not Active | Not Active | Not Active
8 | Oc1ccccc1O [CATECHOL] | Not Active | Not Active | Not Active | Not Active | Not Active | Not Active |  | Not Active | Not Active | Not Active
9 | CO[C@@]1(NC(=O)CSCC#N)C(=O)N2C(C(=O)O)=C(CSc3nnnn3C)CS[C@@H]21 [CEFMETAZOLE] | Not Active | Not Active | Not Active | Not Active | Not Active | Not Active |  | Not Active | Not Active | Not Active
10 | CN(C(=O)CCCOc1ccc2[nH]c(=O)ccc2c1)C1CCCCC1 [CILOSTAMIDE] | Not Active | Not Active | Not Active | Not Active | Not Active | Not Active |  | Not Active | Not Active | Not Active
11 | CC(C)(Oc1ccc(C2CC2(Cl)Cl)cc1)C(=O)O (stereo not drawn) [CIPROFIBRATE] | Not Active | Not Active | Not Active | Not Active | Not Active | Not Active |  | Not Active | Not Active | Not Active
12 | Nc1nc(Cl)nc2c1ncn2[C@H]1C[C@H](O)[C@@H](CO)O1 [CLADRIBINE] | Not Active | Not Active | Not Active | Not Active | Not Active | Not Active |  | Not Active | Not Active | Not Active
13 | CC[C@H]1OC(=O)[C@H](C)[C@@H](O[C@H]2C[C@@](C)(OC)[C@@H](O)[C@H](C)O2)[C@H](C)[C@@H](O[C@@H]2O[C@H](C)C[C@H](N(C)C)[C@H]2O)[C@](C)(OC)C[C@@H](C)C(=O)[C@H](C)[C@@H](O)[C@]1(C)O [CLARITHROMYCIN] | Not Active | Not Active | Not Active | Not Active | Not Active | Not Active |  | Not Active | Not Active | Not Active
14 | CCC[C@@H]1C[C@@H](C(=O)N[C@@H]([C@H]2O[C@H](SC)[C@H](O)[C@@H](O)[C@H]2O)[C@H](C)Cl)N(C)C1 [CLINDAMYCIN] | Not Active | Not Active | Not Active | Not Active | Not Active | Not Active |  | Not Active | Not Active | Not Active
15 | O=C(O)c1cc(=O)c2c(OCC(O)COc3cccc4oc(C(=O)O)cc(=O)c34)cccc2o1 [CROMOLYN] | Not Active | Not Active | Not Active | Not Active | Not Active | Not Active |  | Not Active | Not Active | Not Active
16 | O=P1(N(CCCl)CCCl)NCCCO1 (stereo not drawn) [CYCLOPHOSPHAMIDE ANHYDROUS] | Not Active | Not Active | Not Active | Not Active | Not Active | Not Active |  | Not Active | Not Active | Not Active
17 | CC(=O)O[C@]1(C(C)=O)CC[C@H]2[C@@H]3C=C(Cl)C4=CC(=O)[C@@H]5C[C@@H]5[C@]4(C)[C@H]3CC[C@@]21C [CYPROTERONE ACETATE] | Not Active | Not Active | Not Active | Not Active | Not Active | Not Active |  | Not Active | Not Active | Not Active
